Data as given in patent US4889849A, “Spasmolytically active tertiary amine derivatives” (Duphar International Research B.V., priority 1984, dated 1989).

Assays:
ileum of the guinea pig = test: Spasmolytic activity in vivo (effect on the ileum of the guinea pig, contractions induced with intravenous carbachol); conditions: atropine = 1
Method: Effect on the ileum of the guinea pig.
The spasmolytic effect of the compounds was tested on the ilea of urethane-narcotised, empty-stomach guinea pigs of approximately 500 g (Zwagemakers, Arzn. Forsch. 30, 1517 (1980). Contractions of the intestine were induced every 7 minutes with intravenously administered carbachol in a dose of 5 μg per kg of body weight. After constant response had been reached, the test compounds were administered 3 minutes before the next dose of carbachol was given and the protecting effect was studied for 52 minutes. The contractions after administration of the test compounds were expressed as a percentage of the average of two control values. The average percentage of inhibition was calculated throughout the 52 minutes from the region under the curve. The maximum percentage of inhibition and the duration of the spasmolytic effect were also determined. The spasmolytic effect was considered to be finished when two successive contractions were 20% or less of the control value.

[1] = Peripheral muscarinolytic side effect (saliva/tear secretion, oxotremorine) relative to spasmolytic activity; conditions: mouse, in vivo, ip
Method: (§1) The choice of the dosage depends on the nature and the severity of the disease.
(§2) 3. Muscarinolytic "side effects".
(§3) The compounds to be tested and oxotremorine were administered intraperitoneally to femal DAP-mice at the same instant or, in case of analgesia, also 30 minutes previously.
(§4) Inhibition of the tremors and/or analgesia caused by oxotremorine is a measure of the central muscarinolytic activity, while the inhibition of saliva secretion or tear secretion reflects the peripheral muscarinolytic activity.

[2] = Central muscarinolytic side effect (tremors/analgesia, oxotremorine) relative to spasmolytic activity; conditions: mouse, in vivo, ip
Method: as §1, §2, §3, §4

Row | Compound | Spasm. activ. (ileum of the guinea pig) | selectivity ratio [1] | selectivity ratio [2]
1 | CN1[C@@H]2CC[C@H]1C[C@@H](OC(=O)C(CO)c1ccccc1)C2 (stereo partly shown) [Atropine] | 1 |  | 
2 | CCN(CCCC(=O)C1CCCCC1)C(C)Cc1ccc(OC)cc1 (stereo not shown) [Secoverine] | 0.6 | 50 | 2
